According to ChEMBL document CHEMBL3351225, “Design, synthesis, and structure-activity and structure-pharmacokinetic relationship studies of novel [6,6,5] tricyclic fused oxazolidinones leading to the discovery of a potent, selective, and orally bioavailable FXa inhibitor” (J Med Chem, 2014):

Target: Coagulation factor X (Homo sapiens, UniProt P00742)
Assay: Inhibition of human factor 10a using N-Z-D-Arg-Gly-Arg-pNA, S-2765 chromogenic substrate

Chain of Coagulation factor X (P00742 41-179 limits assumed): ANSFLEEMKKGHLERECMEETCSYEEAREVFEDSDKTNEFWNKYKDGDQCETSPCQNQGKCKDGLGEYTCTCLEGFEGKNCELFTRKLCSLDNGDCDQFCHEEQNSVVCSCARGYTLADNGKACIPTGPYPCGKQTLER
Chain of Coagulation factor X (P00742 235-488 limits assumed): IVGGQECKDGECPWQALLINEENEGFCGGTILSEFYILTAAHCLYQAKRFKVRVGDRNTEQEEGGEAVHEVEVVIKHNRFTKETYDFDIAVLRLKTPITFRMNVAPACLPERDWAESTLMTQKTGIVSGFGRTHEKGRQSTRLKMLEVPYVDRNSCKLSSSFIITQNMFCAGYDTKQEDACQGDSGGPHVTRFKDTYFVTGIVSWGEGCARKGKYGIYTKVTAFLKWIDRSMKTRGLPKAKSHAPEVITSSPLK

Compound	IC50
O=C(NC[C@@H]1OC(=O)N2c3ccc(N4CCOCC4=O)cc3OC[C@H]12)c1ccc(Cl)s1	57.8 nM
O=C(NC[C@@H]1OC(=O)N2c3ccc(N4CCOCC4=O)cc3OC[C@@H]12)c1cnc(Cl)s1	7060 nM
O=C(NC[C@@H]1OC(=O)N2c3ccc(N4CCOCC4=O)cc3OC[C@@H]12)c1cc2ccc(Cl)cc2s1	1750 nM
O=C(NC[C@@H]1OC(=O)N2c3ccc(N4CCOCC4=O)cc3OC[C@@H]12)Nc1ccc(Cl)s1	88.5 nM
O=C(NC[C@@H]1OC(=O)N2c3ccc(N4CCOCC4=O)cc3OC[C@@H]12)c1cc2cc(Cl)ccc2s1	25900 nM
CS(=O)(=O)c1ccccc1-c1ccc2c(c1)SC[C@H]1[C@H](CNC(=O)c3ccc(Cl)s3)OC(=O)N21	20.9 nM
O=C(Nc1ccc(Cl)s1)[C@@H]1OC(=O)N2c3ccc(N4CCOCC4=O)cc3OC[C@@H]12	> 100000 nM
O=C(NC[C@@H]1OC(=O)N2c3ccc(N4CC[C@H](F)CC4=O)cc3OC[C@@H]12)c1ccc(Cl)s1	46.6 nM
CO[C@@H]1CCN(c2ccc3c(c2)OC[C@H]2[C@H](CNC(=O)c4ccc(Cl)s4)OC(=O)N32)C(=O)C1	590 nM
O=C(CSCCCl)NC[C@@H]1OC(=O)N2c3ccc(N4CCOCC4=O)cc3OC[C@@H]12	> 100000 nM
O=C(NC[C@@H]1OC(=O)N2c3ccc(N4CCOCC4=O)cc3OC[C@@H]12)c1cc2c(Cl)cccc2s1	> 100000 nM
CS(=O)(=O)c1ccccc1-c1ccc2c(c1)SC[C@H]1[C@H](CNC(=O)c3ccc(Cl)cc3)OC(=O)N21	1610 nM
